{
  "source": "patent US4774381A",
  "about": "“Herbicide resistant tobacco” (E. I. Du Pont de Nemours and Company, priority 1985, dated 1988)",
  "key": {"[1]": {"test_system": "C3/C3 homozygous mutant cell line", "experiment": "Callus growth test", "assay_type": "cell-based, Nicotiana tabacum", "conditions": "10 ppb herbicide", "method": "(§1) Callus growth tests were conducted substantially according to the following procedure. Approximately 50 mg callus tissue, grown on non-selective media, was spread over 7 cm diameter paper filter discs (Whatman No. 1), which were placed on the medium surface of petri dishes containing C1 agar media and varying concentrations of chlorsulfuron. The resulting cultures were incubated for 14 days at 25±1°, under fluorescent lamps programmed to provide a 16-hour photoperiod per day. At the conclusion of the incubation period, tissue was scraped from each filter disc and weighed. The final fresh weights were recorded, and means and standard errors of the means determined for all cases. The significance of differences between responses of individual cell lines to various concentrations of chlorsulfuron was determined at a probability level of 5% by a t-test for populations having different standard deviations, as described by Snedecor, et al., Statistical Methods (Iowa State University Press, Ames, Iowa, (1967), pp. 114-116).\n(§2) A series of experiments was performed to investigate further the cross-resistance of various resistant cell lines to other herbicidally-effective sulfonamides. First, several homozygous mutant cell lines were evaluated for resistance to sulfometuron-methyl and chlorsulfuron by callus growth tests, performed substantially similarly to the callus growth experiments previously described. In these experiments, callus cultures were derived from R1 plants, which constitute the progeny produced by self-fertilization of a regenerated plant."}, "[2]": {"test_system": "S5/S5 homozygous mutant cell line", "experiment": "Callus growth test", "assay_type": "cell-based, Nicotiana tabacum", "conditions": "10 ppb herbicide", "method": "as §1, §2"}, "[3]": {"test_system": "S1/S1 homozygous mutant cell line", "experiment": "Callus growth test", "assay_type": "cell-based, Nicotiana tabacum", "conditions": "10 ppb herbicide", "method": "as §1, §2"}, "[4]": {"test_system": "S6/S6 homozygous mutant cell line", "experiment": "Callus growth test", "assay_type": "cell-based, Nicotiana tabacum", "conditions": "10 ppb herbicide", "method": "as §1, §2"}, "[5]": {"test_system": "S4/S4 homozygous mutant cell line", "experiment": "Callus growth test", "assay_type": "cell-based, Nicotiana tabacum", "conditions": "for % of control fresh weight / Fr. Wt.: 10 ppb herbicide, S4/S4 (Table 4)", "method": "as §1, §2"}, "Normal (H1) cell line": {"test_system": "Normal (H1) cell line", "experiment": "Callus growth test", "assay_type": "cell-based, Nicotiana tabacum", "conditions": "for % of control fresh weight / Fr. Wt.: 10 ppb herbicide, H1 (Table 4)", "method": "as §1, §2"}, "[6]": {"test_system": "C4/C4 homozygous mutant cell line", "experiment": "Callus growth test", "assay_type": "cell-based, Nicotiana tabacum", "conditions": "10 ppb herbicide", "method": "as §1, §2"}, "[7]": {"test_system": "callus cultures derived from plants that carried the S4 mutation", "experiment": "Callus growth on herbicide-supplemented medium", "assay_type": "cell-based, Nicotiana tabacum", "conditions": "herbicide at 5 parts per billion (ppg) (14 nM)", "description": "A plant heterozygous for the S4 mutation was constructed by a series of backcrosses of a plant regenerated from a herbicide-resistant tobacco cell line with plants of the parental variety (N. tabacum cv. Xanthi). Self-fertilization of this heterozygous individual yielded homozygous mutant, heterozygous, and homozygous normal progeny in the ratio of 1 to 2 to 1, respectively, which is expected for segregation of a single semidominant nuclear allele. The genotypes of these progeny plants were confirmed by analysis of a subsequent generation. Callus cultures were established as previously described from several of the genetically defined isolates produced by self-fertilization of the S4/+ heterozygote. […] Cell suspension cultures were initiated from these callus cultures and from the parental haploid cell line (H1) by transferring callus to a liquid C1 medium in which 2,4-dichlorophenoxyacetic acid (2 mg/L) had been substituted for napthaleneacetic acid and from which agar had been omitted. ALS activity was then assayed in extracts prepared from these cell suspension cultures as follows."}, "[8]": {"test_system": "acetolactate synthase (ALS), Isolate 16 (S4/S4) extract", "experiment": "ALS activity assay in cell extracts", "assay_type": "biochemical, Nicotiana tabacum", "conditions": "for Uninhibited activity (%) in the Presence of Chlorsulfuron: Isolate 16 (S4/S4)", "method": "Cell suspension cultures of normal (H1) and homozygous mutant (Isolate 16) cell lines were washed in C1 liquid medium. After washing, cells were extracted in a 100 mM potassium phosphate buffer (pH 7.5) containing 0.5 mM MgCl2, 1 mM sodium pyruvate, 0.5 mM thiamine pyrophosphate, 10 micromolar flavine-adenine dinucleotide (FAD) and 10 percent (by volume) glycerol. Polyclar AT (BDH Chemicals Ltd) was added to a final concentration of 250 mg per gram fresh weight of tissue. After centrifugation at 27,000xg for 15 minutes at 4°, an equal volume of a saturated solution of amminium sulfate was added to the supernatant fraction. The resultant precipitate (representing a 0 to 50 percent ammonium sulfate fraction) was redissolved in 100 mM potassium phosphate buffer (pH 7.5) containing 0.5 mM MgCl2, 1 mM sodium pyruvate, and salts were removed by passage through a Sephadex G-25 (Pharmacia PD-10) column.\nALS activity was assayed in a total volume of 500 microliters containing 100 microliters of the column eluate, 65 mM potassium phosphate buffer (pH 7.5) containing 10 mM MgCl2, 40 mM sodium pyruvate, 250 micromolar thiamine pyrophosphate, 23 micromolar FAD, and 1, 5, 10, 50, 100, 500 or 1000 ppb chlorsulfuron or sulfometuron-methyl. After incubation at 30° for 90 minutes, 250 microliters of 6N H2 SO4 was added to each assay tube, and the tubes were incubated at 55° for 10 minutes to terminate the enzymatic reaction and achieve complete conversion of acetolactate to acetoin. Acetoin content was then measured by a modification of the procedure described by Westerfield, J. Biol. Chem. 161:495 (1945). To each tube was added sequentially 100 microliters 50 percent NaOH, 150 microliters 0.5 percent creatine, and 150 microliters 5 percent alpha-napthol (in 2.5N NaOH). Color development was accelerated by incubation at 55° for 10 minutes. Tubes were then centrifuged, and the optical density was read at 530 nm. Background optical densities, which were subtracted from the optical density values of the reactions, were determined for each extract from parallel assays to which the enzyme extract was added after the addition of 6N H2 SO4. Protein concentrations were measured with Bio-Rad Protein Assay reagent with bovine serum albumin as a standard. Data points and specific activities, which are set forth below and in FIG. 2, represent the average values of at least three independent determinations. ALS activities are presented in FIG. 2 as percent activity in the absence of herbicide.\nResponses to chlorsulfuron were determined for ALS activities in extracts of cells suspension cultures derived from nine individuals that differed with resepct to the S4 mutation. As described above, these individuals were produced by self-fertilization of an S4/+ heterozygote, and their genotypes were established by means of progeny analysis. Callus and plant phenotypes were determined by growth responses of cell cultures and seedlings, respectively, on herbicide-supplemented medium. […] In contrast, all individuals homozygous for the S4 mutation contained a highly resistant form of the enzyme. […] The correlation between both callus and plant phenotype and the response of ALS activity in vitro to the herbicide is both absolute and quantitative."}},
  "data": [
    {"molecule": "COc1nc(C)nc(NC(=O)NS(=O)(=O)c2ccccc2Cl)n1", "note": "[Chlorsulfuron, chlorsulfuron]", "values": [
      {"measurement": "% of control fresh weight", "setting": "[1]", "result": 86.7, "unit": "%"},
      {"measurement": "Fr. Wt.", "setting": "[1]", "result": "1896 ± 119"},
      {"measurement": "% of control fresh weight", "setting": "[2]", "result": 27.5, "unit": "%"},
      {"measurement": "Fr. Wt.", "setting": "[2]", "result": "725 ± 95"},
      {"measurement": "% of control fresh weight", "setting": "[3]", "result": 11.5, "unit": "%"},
      {"measurement": "Fr. Wt.", "setting": "[3]", "result": "309 ± 34"},
      {"measurement": "% of control fresh weight", "setting": "[4]", "result": 32.1, "unit": "%"},
      {"measurement": "Fr. Wt.", "setting": "[4]", "result": "1076 ± 108"},
      {"measurement": "% of control fresh weight", "setting": "[5]", "result": 96.5, "unit": "%"},
      {"measurement": "Fr. Wt.", "setting": "[5]", "result": "3171 ± 260"},
      {"measurement": "inhibition at 0.028 µM", "setting": "[5]; Nicotiana tabacum, 10 ppb (28 nM), homozygous mutant cell line, read-out: growth inhibited (percent)", "result": "< 5", "unit": "%"},
      {"measurement": "% of control fresh weight", "setting": "Normal (H1) cell line", "result": 1.3, "unit": "%"},
      {"measurement": "Fr. Wt.", "setting": "Normal (H1) cell line", "result": "33 ± 2"},
      {"measurement": "% of control fresh weight", "setting": "[6]", "result": 83.5, "unit": "%"},
      {"measurement": "Fr. Wt.", "setting": "[6]", "result": "3453 ± 231"},
      {"measurement": "growth on supplemented medium", "setting": "[7]", "result": "capable of growth"},
      {"measurement": "Uninhibited activity (%) in the Presence of Chlorsulfuron", "setting": "[8]; 10 ppb", "result": "[…]"},
      {"measurement": "Uninhibited activity (%) in the Presence of Chlorsulfuron", "setting": "[8]; 30 ppb", "result": "[…]"},
      {"measurement": "Uninhibited activity (%) in the Presence of Chlorsulfuron", "setting": "[8]; 100 ppb", "result": "[…]"},
      {"measurement": "concentration inhibiting ALS activity 50 percent", "setting": "[8]; homozygous mutant extract, not achieved at highest concentration tested, 90 min", "result": "[…]"},
      {"measurement": "IC50", "setting": "[8]; homozygous mutant extract, not achieved at highest concentration tested, read-out: concentration inhibiting ALS activity 50 percent", "result": "[…]"}
    ]},
    {"molecule": "COC(=O)c1ccccc1S(=O)(=O)NC(=O)Nc1nc(C)cc(C)n1", "note": "[Sulfometuron-methyl, sulfometuron-methyl]", "values": [
      {"measurement": "% of control fresh weight", "setting": "[1]", "result": 62.6, "unit": "%"},
      {"measurement": "Fr. Wt.", "setting": "[1]", "result": "1369 ± 63"},
      {"measurement": "% of control fresh weight", "setting": "[2]", "result": 13.0, "unit": "%"},
      {"measurement": "Fr. Wt.", "setting": "[2]", "result": "344 ± 55"},
      {"measurement": "% of control fresh weight", "setting": "[3]", "result": 6.4, "unit": "%"},
      {"measurement": "Fr. Wt.", "setting": "[3]", "result": "172 ± 14"},
      {"measurement": "% of control fresh weight", "setting": "[4]", "result": 26.5, "unit": "%"},
      {"measurement": "Fr. Wt.", "setting": "[4]", "result": "887 ± 92"},
      {"measurement": "% of control fresh weight", "setting": "[5]", "result": 33.6, "unit": "%"},
      {"measurement": "Fr. Wt.", "setting": "[5]", "result": "1105 ± 80"},
      {"measurement": "growth of S4/S4 mutant cell line", "setting": "[5]; 200 ppb sulfometuron-methyl", "result": "completely inhibits growth"},
      {"measurement": "activity at 0.01 µg/mL", "setting": "[5]; Nicotiana tabacum, 336 h, sulfometuron-methyl 10 ppb, S4/S4 (Table 6), read-out: % of fresh weight at 0 ppb", "result": 34, "unit": "%"},
      {"measurement": "Fr. wt.", "setting": "[5]; sulfometuron-methyl 10 ppb, S4/S4 (Table 6)", "result": "1105 ± 80", "unit": "mg"},
      {"measurement": "% of control fresh weight", "setting": "Normal (H1) cell line", "result": 1.2, "unit": "%"},
      {"measurement": "Fr. Wt.", "setting": "Normal (H1) cell line", "result": "32 ± 2"},
      {"measurement": "activity at 0.001 µg/mL", "setting": "Normal (H1) cell line; Nicotiana tabacum, 336 h, sulfometuron-methyl 1 ppb, Normal (H1) (Table 6), read-out: % of fresh weight at 0 ppb", "result": 1.4, "unit": "%"},
      {"measurement": "activity at 0.01 µg/mL", "setting": "Normal (H1) cell line; Nicotiana tabacum, 336 h, sulfometuron-methyl 10 ppb, Normal (H1) (Table 6), read-out: % of fresh weight at 0 ppb", "result": 1, "unit": "%"},
      {"measurement": "Fr. wt.", "setting": "Normal (H1) cell line; sulfometuron-methyl 1 ppb, Normal (H1) (Table 6)", "result": "39 ± 2", "unit": "mg"},
      {"measurement": "Fr. wt.", "setting": "Normal (H1) cell line; sulfometuron-methyl 10 ppb, Normal (H1) (Table 6)", "result": "29 ± 1", "unit": "mg"},
      {"measurement": "% of control fresh weight", "setting": "[6]", "result": 83.9, "unit": "%"},
      {"measurement": "Fr. Wt.", "setting": "[6]", "result": "3473 ± 323"},
      {"measurement": "growth on supplemented medium", "setting": "[7]", "result": "capable of growth"},
      {"measurement": "resistance of mutant ALS activity to inhibition", "setting": "[8]; mutant cell line versus parental activity", "result": "more resistant than the parental activity"}
    ]}
  ]
}
